Measured values taken from patent US20190375708A1 (VenatoRx Pharmaceuticals, Inc., priority 2018, published 2019).

What was measured:
[1] = test system: HBV replication in HepAD38 cells; test: Anti-HBV replication assay in HepAD38 cells (QPCR of extracellular HBV DNA); assay type: cell-based, HBV (genotype D, serotype ayw); details: Hepatitis B virus, 168 h, 7 days incubation, extracellular HBV DNA by QPCR, read-out: Anti-HBV EC50
In short: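 HepAD38 cells (HepG2 carrying tet-repressible HBV genotype D genome) induced by tetracycline withdrawal, treated 7 days at 37 °C with compound ([…], 1-log10 dilutions). Extracellular HBV DNA quantified by QPCR against a standard curve, normalised to DMSO; EC50 from 4-parameter fit.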

[2] = In vitro cytotoxicity assay (MTT cell viability) in HepG2 cells; assay type: cell-based, human; details: human
In short: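 Read-out: MTT formazan absorbance at 492 nm, expressed as % of vehicle signal; CC50 by 4-parameter non-linear regression. Parental HepG2, 20,000 cells/well, treated 7 days with compound from 30 μM down to 1.0 nM.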

CC(C)(CO)NC(=O)C(=O)c1cc(C(=O)Nc2ccc(F)c(F)c2)c2n1CCCC2 [Example 426, N-(3,4-difluorophenyl)-3-(2-((1-hydroxy-2-methylpropan-2-yl)amino)-2-oxoacetyl)-5,6,7,8-tetrahydroindolizine-1-carboxamide]
EC50 [1]: 50 to 499 nM | CC50 at 7 days [2]: > 30 µM

Cc1cc(NC(=O)c2c(C)c(C(=O)C(=O)NCC(C)(C)O)n(C)c2C)ccc1F [Example 66, N-(4-fluoro-3-methylphenyl)-5-(2-((2-hydroxy-2-methylpropyl)amino)-2-oxoacetyl)-1,2,4-trimethyl-1H-pyrrole-3-carboxamide]
EC50 [1]: < 50 nM | CC50 at 7 days [2]: > 30 µM

CC(C)(CO)NC(=O)C(=O)c1cc(C(=O)Nc2ccc(F)c(Cl)c2)c2n1CCCC2 [Example 427, N-(3-chloro-4-fluorophenyl)-3-(2-((1-hydroxy-2-methylpropan-2-yl)amino)-2-oxoacetyl)-5,6,7,8-tetrahydroindolizine-1-carboxamide]
EC50 [1]: 50 to 499 nM | CC50 at 7 days [2]: > 30 µM

Cc1cnc(C(NC(=O)C(=O)c2c(C)c(C(=O)Nc3ccc(F)c(C)c3)c(C)n2C)C2CC2)s1 (stereo not shown) [Example 83, 5-(2-((cyclopropyl(5-methylthiazol-2-yl)methyl)amino)-2-oxoacetyl)-N-(4-fluoro-3-methylphenyl)-1,2,4-trimethyl-1H-pyrrole-3-carboxamide]
EC50 [1]: < 50 nM | CC50 at 7 days [2]: 5 to 30 µM

Cc1cc(NC(=O)c2c(C)c(C(=O)C(=O)NC34CC5CC(CC3C5)C4)n(C)c2C)cnc1F [Example 113, N-(6-fluoro-5-methylpyridin-3-yl)-5-(2-(((2R,3as,5S,6as)-hexahydro-2,5-methanopentalen-3a(1H)-yl)amino)-2-oxoacetyl)-1,2,4-trimethyl-1H-pyrrole-3-carboxamide]
EC50 [1]: < 50 nM | CC50 at 7 days [2]: > 30 µM

COC(=O)[C@@H](NC(=O)C(=O)c1c(C)c(C(=O)Nc2ccc(F)c(C)c2)c(C)n1C)[C@@H](C)O [Example 27, methyl (2-(4-((4-fluoro-3-methylphenyl)carbamoyl)-1,3,5-trimethyl-1H-pyrrol-2-yl)-2-oxoacetyl)-L-threoninate]
EC50 [1]: > 1000 nM | CC50 at 7 days [2]: > 30 µM

Cc1c(C(=O)Nc2ccc(F)c(Cl)c2)c(C)n(C)c1C(=O)C(=O)Nc1ccc(F)c(F)c1 [Example 313]
EC50 [1]: < 50 nM | CC50 at 7 days [2]: 5 to 30 µM

Cc1c(C(=O)Nc2ccc(F)c(F)c2)c2n(c1C(=O)C(=O)NC1(CO)CC(F)(F)C1)CCCC2 [Example 459, 3-(2-((3,3-difluoro-1-(hydroxymethyl)cyclobutyl)amino)-2-oxoacetyl)-N-(3,4-difluorophenyl)-2-methyl-5,6,7,8-tetrahydroindolizine-1-carboxamide]
EC50 [1]: 50 to 499 nM | CC50 at 7 days [2]: 5 to 30 µM

Cc1cc(NC(=O)c2c(C)c(C(=O)C(=O)N[C@H]3c4ccccc4C[C@@H]3O)n(C)c2C)ccc1F [Example 259, N-(4-fluoro-3-methylphenyl)-5-(2-(((1S,2S)-2-hydroxy-2,3-dihydro-1H-inden-1-yl)amino)-2-oxoacetyl)-1,2,4-trimethyl-1H-pyrrole-3-carboxamide]
EC50 [1]: < 50 nM | CC50 at 7 days [2]: > 30 µM

Cc1cc(NC(=O)c2c(C)c(C(=O)C(=O)N[C@@H]3c4ccccc4C[C@H]3O)n(C)c2C)ccc1F [Example 261, N-(4-fluoro-3-methylphenyl)-5-(2-(((1R,2R)-2-hydroxy-2,3-dihydro-1H-inden-1-yl)amino)-2-oxoacetyl)-1,2,4-trimethyl-1H-pyrrole-3-carboxamide]
EC50 [1]: < 50 nM | CC50 at 7 days [2]: 0.5 to 4.99 µM

Cc1cc(NC(=O)c2c(C)c(C(=O)C(=O)NCC(O)c3ccsc3)n(C)c2C)ccc1F (stereo not shown) [Example 648, N-(4-fluoro-3-methylphenyl)-5-(2-((2-hydroxy-22-(thiophen-3-yl)ethyl)amino)-2-oxoacetyl)-1,2,4-trimethyl-1H-pyrrole-3-carboxamide]
EC50 [1]: < 50 nM | CC50 at 7 days [2]: > 30 µM

COc1c(C(=O)Nc2ccc(F)c(F)c2)c(C)n(C)c1C(=O)C(=O)NCC(C)(C)O [Example 382, N-(3,4-difluorophenyl)-5-(2-((2-hydroxy-2-methylpropyl)amino)-2-oxoacetyl)-4-methoxy-1,2-dimethyl-1H-pyrrole-3-carboxamide]
EC50 [1]: > 1000 nM | CC50 at 7 days [2]: > 30 µM

Cc1cc(NC(=O)c2cc(C(=O)C(=O)NC3(C(F)(F)F)CC3)n3c2CCCC3)ccc1F [Example 402, N-(4-fluoro-3-methylphenyl)-3-(2-oxo-2-((1-(trifluoromethyl)cyclopropyl)amino)acetyl)-5,6,7,8-tetrahydroindolizine-1-carboxamide]
EC50 [1]: 50 to 499 nM | CC50 at 7 days [2]: > 30 µM

Cc1cc(NC(=O)c2c(C)c(C(=O)C(=O)NC(C)(C)C)n(C)c2C)cnc1F [Example 112, 5-(2-(tert-butylamino)-2-oxoacetyl)-N-(6-fluoro-5-methylpyridin-3-yl)-1,2,4-trimethyl-1H-pyrrole-3-carboxamide]
EC50 [1]: 50 to 499 nM | CC50 at 7 days [2]: > 30 µM

CC(C)(C)NC(=O)C(=O)c1cc(C(=O)Nc2cc(F)c(F)c(F)c2)c2n1CCCC2 [Example 396, 3-(2-(tert-butylamino)-2-oxoacetyl)-N-(3,4,5-trifluorophenyl)-5,6,7,8-tetrahydroindolizine-1-carboxamide]
EC50 [1]: 50 to 499 nM | CC50 at 7 days [2]: 5 to 30 µM

Cc1cc(NC(=O)c2c(C)c(C(=O)C(=O)NC3CCS(=O)(=O)C(C)(C)C3)n(C)c2C)ccc1F (stereo not shown) [Example 623, 5-(2-((2,2-dimethyl-1,1-dioxidotetrahydro-2H-thiopyran-4-yl)amino)-2-oxoacetyl)-N-(4-fluoro-3-methylphenyl)-1,2,4-trimethyl-1H-pyrrole-3-carboxamide]
EC50 [1]: < 50 nM | CC50 at 7 days [2]: > 30 µM

CCN(CC)CCNC(=O)C(=O)c1c(C)c(C(=O)Nc2ccc(F)c(C)c2)c(C)n1C [Example 329, 5-(2-((2-(diethylamino)ethyl)amino)-2-oxoacetyl)-N-(4-fluoro-3-methylphenyl)-1,2,4-trimethyl-1H-pyrrole-3-carboxamide]
EC50 [1]: 500 to 1000 nM | CC50 at 7 days [2]: > 30 µM

Cc1cc(NC(=O)c2c(C)c(C(=O)C(=O)NC3(C)CCN(C(=O)c4cnn5cccnc45)CC3)n(C)c2C)ccc1F [Example 719, N-(4-fluoro-3-methylphenyl)-1,2,4-trimethyl-5-(2-((4-methyl-1-(pyrazolo[1,5-a]pyrimidine-3-carbonyl)piperidin-4-yl)amino)-2-oxoacetyl)-1H-pyrrole-3-carboxamide]
EC50 [1]: < 50 nM | CC50 at 7 days [2]: > 30 µM

Cc1cc(NC(=O)c2c(C)c(C(=O)C(=O)NC3(C(=O)NC(C)C)CCOCC3)n(C)c2C)ccc1F [Example 303, N-(4-fluoro-3-methylphenyl)-5-(2-((4-(isopropylcarbamoyl)tetrahydro-2H-pyran-4-yl)amino)-2-oxoacetyl)-1,2,4-trimethyl-1H-pyrrole-3-carboxamide]
EC50 [1]: < 50 nM | CC50 at 7 days [2]: > 30 µM

Cc1cc(NC(=O)c2c(C)c(C(=O)C(=O)NC34CC5CC(CC(C5)C3)C4)n(C)c2C)ccc1F [Example 14, 5-(2-(((3s,5s,7s)-adamantan-1-yl)amino)-2-oxoacetyl)-N-(4-fluoro-3-methylphenyl)-1,2,4-trimethyl-1H-pyrrole-3-carboxamide]
EC50 [1]: < 50 nM | CC50 at 7 days [2]: 5 to 30 µM
